Test results from patent US6573078B1, “Compounds which inhibit HIV replication” (priority 1992, dated 2003).

Key:
Assay type in all cases: cell-based
HIV-1LAI [1] = test: Peptide inhibition of PBMC infection by prototypic isolate (RT activity readout); conditions: FIG. 5
Protocol: (§1) About 25 TCID100 of two primary isolates and HIV-1LAI were added to […] human PBMCs (about 1.5×10^6/ml) containing the indicated final concentrations of test peptide or 5T4. Each treatment condition was tested in duplicate and the cells were cultured in RPMI1640 containing 10% FCS 5% IL2. Four days post infection an equal number of fresh PBMCs were added to each well. This step allows for further expansion of virus and increases the […] in the final RT assay. Supernatant was harvested 8 days after infection and tested for the presence of reverse transcriptase activity.
(§2) The micro RT assay was adapted from Goff et al. (J. Virol. 38, 239 (1981)) and Willey et al. (J. Virol. 62, 139 (1988)). Supernatants from virus/cell cultures are made 1% in Triton-X100. A […] sample of supernatant was added to 50 ml of RT cocktail in a 96 well U bottom microtiter plate and the samples incubated at 370° C. for 90 min. […]
(§3) The HIV1LAI virus was obtained from R. Gallo (see M. Popovic et al., Science 224, 497 (1984)) and propagated in CEM cells cultured in RPMI 1640 containing 10-% FCS. […] The TCID50 was calculated according to the Reed and Muench formula in accordance with known techniques. […] The titer of the HIV-1LAI stock used for these studies, as measured on the AA5 cell line, was approximately 1×10^7TCID50/ml. […]

HIV-1LAI virus = test: Peptide blockade of HIV-1 induced cell-cell fusion (syncytia formation; Molt4 cells co-cultivated with chronically infected CEM cells); conditions: for No. Syncytia/well: Table 3, ctrl cells only = 85
Protocol: The initial screen for antiviral activity of the peptides shown in FIG. 1 was for blockade of syncytium formation induced by overnight co-cultivation of uninfected Molt4 cells with chronically infected (HIV-1IIIB) CEM cells.
Approximately 7×10^4 Molt cells were incubated with 1×10^4 CEM cells chronically infected with the HIV-1LAI virus in 96 well plates (one-half area cluster plates;Costar. Cambridge, Mass.) in a final volume of […] culture media in accordance with known techniques (T. Matthews et al., Proc. Natl. Acad. Sci. U.S.A. 84, 5424 (1987)). Peptide inhibitors were added in a volume of […] and the cell mixtures were incubated for 24 hr at 37° C. At that time point, multinucleated giant cells were estimated by microscopic examination at a 40× magnification which allowed visualization of the entire well in a single field.

HIV-1LAI [2] = test: Peptide inhibition of infection by cell-free virus (neutralization assay; AA5 cells, RT activity readout)
Protocol: Cell cultures were maintained in 96-well microtiter plates for 8 days by addition of fresh medium (but no further addition of peptides) every other day. On the eighth day post-infection, supernatant was tested for reverse transcriptase activity as evidence of successful infection.
The micro RT assay was adapted from Goff et al. (J. Virol. 38, 239 (1981)) and Willey et al. (J. Virol. 62, 139 (1988)). Supernatants from virus/cell cultures are made 1% in Triton-X100. A […] sample of supernatant was added to 50 ml of RT cocktail in a 96 well U bottom microtiter plate and the samples incubated at […] for 90 min. The cocktail contained 75 mM KCl, 2 mM dithiothreitol, 5 mm Mgcl2l 5 mg/ml poly A (Pharmacia cat. No. 27-4110-01), 0.25 units/ml oligo dT (Pharmacia cat. No. 27-7858-01), 0.05% NP40, 50 mM Tris-HC1, pH 7.8, 0.5 mM non-radioactive dTTP, and 10 mCi/ml ^32p-dTTP (Amersham cat. No. PB.10167). After the incubation period, 40 ml of reaction mixture was applied to a Schleicher and Schuell NA45 membrane (or DE81 paper) saturated in 2×SSC buffer (0.3M NaCl and […]) held in a Schleicher and Schuell Minifold over one sheet of GB003 filter paper. Each well of the minifold was washed four times with […] 2×SSC. The membrane was removed from the minifold and washed 2 more times in a pyrex dish with an excess of 2×SSC. Finally the membrane was drained on absorbent paper, placed on Whatman #3 paper, covered with saran wrap, and exposed to film overnight.
The HIV1LAI virus was obtained from R. Gallo (see M. Popovic et al., Science 224, 497 (1984)) and propagated in CEM cells cultured in RPMI 1640 containing 10-% FCS. Supernatant from the infected CEM cells was passed through a […] and the infectious titer estimated in a microinfectivity assay using the AA5 cell line to support virus replication. For this purpose 25 ml of serially diluted virus was added to 75 ml AA5 cells at 2×10^5/ml in a 96 well microtiter plate. Each virus dilution was tested in triplicate. Cells were cultured for eight days by addition of fresh medium every other day. On day 8 post infection supernatant samples were tested for virus replication as evidenced by RT activity released to the supernatant in accordance with the procedure described above. The TCID50 was calculated according to the Reed and Muench formula in accordance with known techniques. See L. Reed et al., Amer. J. Hygiene 27, 493 (1938) . The titer of the HIV-1LAI stock used for these studies, as measured on the AA5 cell line, was approximately 1×10^7TCID50/ml. The two primary isolates were obtained from PBMCs of two infected donors, one from Brazil (HIV-1Br3) and the other Trinidad (HIV-1Q72775) by co-cultivation with PHA-blasted normal donor PBMCs in RPMI 1640 containing IL2. The infectious titers of the primary virus stocks were estimated by titration onto normal human PHA blasted PBMCs in a 96 well microtiter plate, again using RT activity released to the supernatant as evidence for successful infection. The infectious titer of both of these isolates was estimated to be approximately 1×10^3 TCID100/ml.
The peptides were next tested for blockade of infection by cell-free virus. The results shown in FIG. 3 are representative of several experiments in which the DP-107, 125, and (CS3) peptides were compared for potency in the blockade of HIVLAI, infection of AA5 cells. Each level of peptide was incubated in triplicate with about 500 TCID50 of virus and cells. After 7 days of culture, cell-free supernatant was tested for the presence of RT activity as a measure of successful infection.

[3] = test system: two primary HIV-1 isolates (HIV-1Br3, HIV-1Q72775); test: Peptide inhibition of PBMC infection by primary isolates (RT activity readout); conditions: FIG. 5
Protocol: as §1, §2, §3

CGNNLLRAIEAQQHLLQLTVWGIKQLQARILAVERYLKDQ (CGGNNLLRAIEAQQHLLQLTVWGIKQLQARILAVERYLKDQ) [DP-125]
Inhibition of PBMC infection by prototypic isolate HIVLAI (in words) (HIV-1LAI [1]): inhibit | Syncytia Number (HIV-1LAI virus; EXP. 2, peptide concentration 1.25 micrograms/ml, 0 peptide = 93): 35 | Syncytia Number (HIV-1LAI virus; EXP. 2, peptide concentration 2.5 micrograms/ml, 0 peptide = 93): 3 | Syncytia Number (HIV-1LAI virus; EXP. 2, peptide concentration 5 micrograms/ml, 0 peptide = 93): 0 | Syncytia Number (HIV-1LAI virus; EXP. 2, peptide concentration 10 micrograms/ml, 0 peptide = 93): 0 | Syncytia Number (HIV-1LAI virus; EXP. 2, peptide concentration 20 micrograms/ml, 0 peptide = 93): 0 | Syncytia Number (HIV-1LAI virus; EXP. 2, peptide concentration 40 micrograms/ml, 0 peptide = 93): 0 | Syncytia Number (HIV-1LAI virus; EXP. 3, peptide concentration 1.25 micrograms/ml, 0 peptide = 76): 0 | Syncytia Number (HIV-1LAI virus; EXP. 3, peptide concentration 2.5 micrograms/ml, 0 peptide = 76): 0 | Syncytia Number (HIV-1LAI virus; EXP. 3, peptide concentration 5 micrograms/ml, 0 peptide = 76): 0 | Syncytia Number (HIV-1LAI virus; EXP. 3, peptide concentration 10 micrograms/ml, 0 peptide = 76): 0 | Syncytia Number (HIV-1LAI virus; EXP. 3, peptide concentration 20 micrograms/ml, 0 peptide = 76): 0 | Syncytia Number (HIV-1LAI virus; EXP. 3, peptide concentration 40 micrograms/ml, 0 peptide = 76): 0 | No. Syncytia/well (HIV-1LAI virus; peptide concentration 1.25 ug/ml on IIIB): 0 | No. Syncytia/well (HIV-1LAI virus; peptide concentration 2.5 ug/ml on IIIB): 0 | No. Syncytia/well (HIV-1LAI virus; peptide concentration 5 ug/ml on IIIB): 0 | No. Syncytia/well (HIV-1LAI virus; peptide concentration 10 ug/ml on IIIB): 0 | No. Syncytia/well (HIV-1LAI virus; peptide concentration 20 ug/ml on IIIB): 0 | No. Syncytia/well (HIV-1LAI virus; peptide concentration 40 ug/ml on IIIB): 0 | Fusion: quantity of compound required for 90% reduction in number of syncytia (HIV-1LAI virus; control = 90 syncytia): <1 µg/mL | Concentration required for inhibition relative to DP107 (HIV-1LAI virus; syncytial blocking assays, Table 1 experiments 2 and 3): one-half to one-fourth | Neutraliz: quantity of compound required for 90% reduction in infectivity (HIV-1LAI [2]): 2 µg/mL | Dose required for inhibitory effect compared with DP-107 (in words) (HIV-1LAI [2]; FIG. 3): lower | Blockade of HIVLAI infection of AA5 cells (in words) (HIV-1LAI [2]; about 500 TCID50 of virus, RT activity in supernatant, FIG. 3): inhibited the de-novo infection process | Inhibition of PBMC infection by primary isolates (in words) [3]: inhibit
